PMC9032385, “A2A Adenosine Receptor Antagonists: Are Triazolotriazine and Purine Scaffolds Interchangeable?” (Molecules, 2022)

Experiments:
human recombinant A3AR = biological target: T1, human recombinant A3AR (Homo sapiens, UniProt P0DMS8); experiment: Radioligand binding at human A3AR ([3H]HEMADO displacement, CHO cell membranes); conditions: displacement of [3H]HEMADO, n = 3–5, means ± standard errors
T1 construct: expressed in transfected cells; membrane preparation
T1 sequence (P0DMS8 1-318): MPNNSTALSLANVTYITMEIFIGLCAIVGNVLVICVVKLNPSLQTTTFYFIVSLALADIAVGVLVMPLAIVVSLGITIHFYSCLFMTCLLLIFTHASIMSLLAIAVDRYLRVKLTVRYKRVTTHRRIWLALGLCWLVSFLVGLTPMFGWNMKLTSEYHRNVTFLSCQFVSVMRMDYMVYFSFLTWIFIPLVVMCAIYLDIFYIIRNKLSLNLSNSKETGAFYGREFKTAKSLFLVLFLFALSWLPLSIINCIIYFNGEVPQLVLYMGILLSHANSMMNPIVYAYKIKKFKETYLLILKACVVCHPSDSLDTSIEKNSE
Method: (§1) The affinities of the newly synthesized compounds 7–13 and 17–21 were determined in binding studies at human recombinant A1, A2A, and A3 ARs, stably transfected in Chinese hamster ovary (CHO) cells, using [^3H]CCPA (2-chloro-N^6-cyclopentylAdo), [^3H]NECA (5′-N-ethylcarboxamidoAdo), and [^3H]HEMADO (2-hexynyl-N^6-methylAdo) as respective radioligands. Most of the compounds were also evaluated at A2BARs in a functional study using the GloSensor cAMP assay. The results are reported in Table 1 as Ki values in nM (± standard errors). In the case of A2BARs, Ki-values were calculated from IC50-values determined by the inhibition of NECA-stimulated adenylyl cyclase activity.
(§2) Cell culture: The Chinese hamster ovary cells (CHO) stably transfected with the desired ARs were grown in DMEM/F12 medium containing 10% FBS (fetal bovine serum), 100 U/mL penicillin, 100 µg/mL streptomycin, 2.5 μg/mL amphotericin B, 1 mM sodium pyruvate, 0.1 mg/mL genetecina (G418), and incubated at 37 °C in a gaseous mixture of 5% CO2: […].
(§3) Preparation of membranes: Cell membranes for binding assays were prepared mechanically detaching the cells from the petri and suspending them in a cold hypotonic buffer (5 mM Tris/HCl, 2 mM EDTA, pH 7.4). The cell suspension was homogenized (Ultra-Turrax, 2 × 15 s at maximum speed) and the homogenate centrifuged for 10 min (4 °C) to 1000× g. The supernatant was subsequently centrifuged for 30 min (4 °C) at 100,000× g and the pellet containing the membrane proteins was re-suspended in a specific buffer for each receptor subtype (A1: 50 mM Tris/HCl, pH 7.4; A2A: 50 mM Tris/HCl, 10 mM MgCl2, pH 7.4; A3: 50 mM Tris/HCl, 10 mM MgCl2, 1 mM EDTA, pH 8.25). The amount of the protein suspension was determined according to the […] using the BCA Protein Assay Kit (Pierce), frozen in liquid nitrogen, and stored at −80 °C.
(§4) Binding assays: The dissociation constants of the radioligand (KD) were calculated through saturation assays, while the dissociation constants of the compounds under study (Ki) were determined by competition experiments. All binding data were calculated by nonlinear regression curves using the software GraphPad Prism 5 (GraphPad Software, San Diego, CA, USA). The increasing concentrations of the radioligand saturation binding ([^3H]-CCPA for the A1 receptor subtype, [^3H]-NECA for the A2A receptor subtype, and [^3H]-HEMADO for the A3 receptor) subtype were incubated in a total volume of 250 μL containing 0.2 U/mL of Ado deaminase (ADA) and 12 micrograms of membrane proteins in the specific buffer. In competition experiments for the A1 receptor subtype, each compound was added at increasing concentrations, to the well containing 1 nM of [^3H]-CCPA, to a final volume of 200 μL. The samples were left to incubate for 3 h at room temperature, filtered in a filter 96-well plate (UniFilter GF/C, Perkin-Elmer Life and Analytical Science, Boston, MA) using the FilterMate Cell Harvester (Perkin-Elmer), and washed 3 times with cold distilled water. After drying the filter plate at 40 °C for 30′, they 20 μL of scintillating liquid (Microscint-20, Perkin-Elmer) was added to each well, and then the radioactivity was quantized with the MicroBeta2 Plate Counter (Perkin-Elmer). The conditions for binding experiments at A2A and A3 receptor subtypes were essentially the same as for the A1AR using [^3H]-NECA (N-ethylcarboxyamideAdo) at a concentration of 10 nM and [^3H]-HEMADO (2-(1-hexyne)-N^6-methylAdo) at a concentration of 1 nM as radioligands, respectively. The samples were incubated with 12 micrograms of protein for 3 h at room temperature and filtered as described above.
(§5) The non-specific binding was determined in the presence of 1 mM theophylline for the A1AR, or 100 µM R-PIA (N^6-(1-methyl-2-phenylethyl)Ado) for the A2A and A3 receptors.

human recombinant A1AR = biological target: T2, human recombinant A1AR (Homo sapiens, UniProt P30542); experiment: Radioligand binding at human A1AR ([3H]CCPA displacement, CHO cell membranes); conditions: displacement of [3H]CCPA, n = 3–5, means ± standard errors
T2 construct: expressed in transfected cells; membrane preparation
T2 sequence (P30542 1-326): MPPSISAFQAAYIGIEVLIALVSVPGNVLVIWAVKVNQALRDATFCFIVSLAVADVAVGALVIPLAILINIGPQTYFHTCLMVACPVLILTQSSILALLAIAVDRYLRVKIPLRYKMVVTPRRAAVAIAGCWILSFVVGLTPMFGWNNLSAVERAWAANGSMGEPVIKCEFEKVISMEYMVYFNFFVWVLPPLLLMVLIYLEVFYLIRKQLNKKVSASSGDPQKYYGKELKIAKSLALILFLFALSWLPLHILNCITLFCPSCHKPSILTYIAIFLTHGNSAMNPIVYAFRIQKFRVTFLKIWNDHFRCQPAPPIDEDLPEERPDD
Method: as §1, §2, §3, §4, §5

human recombinant A2AAR = biological target: T3, human recombinant A2AAR (Homo sapiens, UniProt P29274); experiment: Radioligand binding at human A2AAR ([3H]NECA displacement, CHO cell membranes); conditions: displacement of [3H]NECA, CHO membranes, n = 3–5, means ± standard errors
T3 construct: expressed in transfected cells; membrane preparation
T3 sequence (P29274 whole entry): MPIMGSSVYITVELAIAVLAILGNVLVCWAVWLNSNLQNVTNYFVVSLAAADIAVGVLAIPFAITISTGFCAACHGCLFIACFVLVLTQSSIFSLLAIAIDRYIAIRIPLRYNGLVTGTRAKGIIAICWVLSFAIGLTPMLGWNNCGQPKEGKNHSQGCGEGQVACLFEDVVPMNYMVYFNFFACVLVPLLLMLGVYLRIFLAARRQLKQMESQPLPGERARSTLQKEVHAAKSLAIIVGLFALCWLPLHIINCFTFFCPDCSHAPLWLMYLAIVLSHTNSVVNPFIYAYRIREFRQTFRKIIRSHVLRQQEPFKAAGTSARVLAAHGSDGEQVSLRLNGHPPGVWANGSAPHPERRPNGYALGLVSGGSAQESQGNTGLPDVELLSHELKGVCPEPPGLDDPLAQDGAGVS
Method: Most of the compounds were also evaluated at A2BARs in a functional study using the GloSensor cAMP assay. […] In the case of A2BARs, Ki-values were calculated from IC50-values determined by the inhibition of NECA-stimulated adenylyl cyclase activity.
Preparation of membranes: Cell membranes for binding assays were prepared mechanically detaching the cells from the petri and suspending them in a cold hypotonic buffer (5 mM Tris/HCl, 2 mM EDTA, pH 7.4). The cell suspension was homogenized (Ultra-Turrax, 2 × 15 s at maximum speed) and the homogenate centrifuged for 10 min (4 °C) to 1000× g. […] The amount of the protein suspension was determined according to the […] using the BCA Protein Assay Kit (Pierce), frozen in liquid nitrogen, and stored at −80 °C.
as §4, §5

A2BAR = biological target: T4, A2BAR (Homo sapiens, UniProt P29275); experiment: Functional study at A2BAR (GloSensor cAMP assay; inhibition of NECA-stimulated adenylyl cyclase activity); format: cell-based; conditions: Ki calculated from IC50 of inhibition of NECA-stimulated adenylyl cyclase activity, CHO cells
T4 construct: expressed in transfected cells
T4 sequence (P29275 1-332): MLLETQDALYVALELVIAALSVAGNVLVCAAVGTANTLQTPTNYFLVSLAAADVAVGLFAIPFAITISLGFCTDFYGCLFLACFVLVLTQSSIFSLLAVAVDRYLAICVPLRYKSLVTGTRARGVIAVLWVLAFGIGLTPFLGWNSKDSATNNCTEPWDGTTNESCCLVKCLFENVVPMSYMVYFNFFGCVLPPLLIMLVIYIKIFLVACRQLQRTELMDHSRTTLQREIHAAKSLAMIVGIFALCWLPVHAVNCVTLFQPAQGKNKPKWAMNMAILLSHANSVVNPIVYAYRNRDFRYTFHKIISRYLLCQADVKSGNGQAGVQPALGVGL
Method: as §1

PD patients = test system: PD patients; design: method as in PMID 26523919; conditions: two phase III trials, adjunct to levodopa in PD patients; cited from earlier work

| SMILES | Ki (human recombinant A3AR) [µM] | Ki (human recombinant A1AR) [µM] | melting point | Ki (human recombinant A2AAR) [µM] | Ki (A2BAR) [µM] | efficacy versus placebo (PD patients) |
| --- | --- | --- | --- | --- | --- | --- |
| CCOc1nc2nc(SC)nc(N)n2n1 [compound 18, 2-Ethoxy-5-(methylthio)-[1,2,4]triazolo[1,5-a][1,3,5]triazin-7-amine] | 9.72 | 4.57 | 220 °C (dec.) | 0.583 | – | – |
| CCn1c(Br)nc2c(N)nc(NCCc3ccc(OC)cc3)nc21 [compound 8, 8-Bromo-9-ethyl-N^2-(4-methoxyphenethyl)-9H-purine-2,6-diamine] | 4.03 | 0.545 | – | 0.034 | 4.26 | – |
| CSc1nc(N)n2nc(S(C)(=O)=O)nc2n1 [compound 17, 2-(Methylsulfonyl)-5-(methylthio)-[1,2,4]triazolo [1,5-a][1,3,5]triazin-7-amine] | 14.7 | 5.72 | – | 3.24 | – | – |
| CCn1c(O)nc2c(N)nc(NCCc3ccc(OC)cc3)nc21 [compound 10] | 0.777 | 1.39 | – | > 30 | > 30 | – |
| CCn1c(-c2ccco2)nc2c(N)nc(NCCc3ccc(OC)cc3)nc21 [compound 12, 9-ethyl-8-(furan-2-yl)-N^2-(4-methoxyphenethyl)-9H-purine-2,6-diamine] | 0.016 | 0.0026 | – | 0.001 | > 30 | – |
| CCn1c(Br)nc2c(N)nc(NCCc3ccc(O)cc3)nc21 [compound 9, 4-(2-((6-Amino-9-ethyl-8-bromo-9H-purin-2-yl)amino)ethyl)phenol] | 3.81 | 0.411 | – | 0.044 | 0.393 | – |
| CCn1c(O)nc2c(N)nc(NCCc3ccc(O)cc3)nc21 [compound 11] | > 30 | 7.05 | – | > 30 | > 30 | – |
| CCOc1nc(N)n2nc(OCC)nc2n1 [compound 19, 2,5-diethoxy-[1,2,4]triazolo[1,5-a][1,3,5]triazin-7-amine] | 4.79 | 6.36 | – | 1.06 | – | – |
| COCCOc1ccc(N2CCN(CCn3ncc4c3nc(N)n3nc(-c5ccco5)nc43)CC2)cc1 [Preladenant] | – | – | – | – | – | efficacy was not significantly higher than the placebo |
| CCn1cnc2c(N)nc(NCCc3ccc(OC)cc3)nc21 [compound 7, 9-Ethyl-N^2-(4-methoxyphenethyl)-9H-purine-2,6-diamine] | 23.6 | 5.84 | – | 1.46 | > 30 | – |
